Data published in ChEMBL document CHEMBL5647694, “Novel orally bioavailable EZH1/2 dual inhibitors with greater antitumor efficacy than an EZH2 selective inhibitor” (Cancer Sci, 2017).
The source made the active and inactive calls. No cut-off for these calls is given here.

Tests used:
[1] = Antitumor activity against human COV362 cells assessed as cell growth inhibition treated for 10 to 15 days; assay type: functional; conditions: time 10-15 day
[2] = test system: SK-N-MC; assay: Antitumor activity against human SK-N-MC cells assessed as cell growth inhibition treated for 10 to 15 days; assay type: functional; conditions: time 10-15 day
[3] = target: Ribosomal protein S6 kinase alpha-2 (Homo sapiens) (UniProt Q15349); assay: Inhibition of N-terminal GST-fused human full length RSK3 (1 to 733 residues) expressed in baculovirus expression system using S6K peptide(N-FL) as substrate at 1 uM in presence of ATP by Mobility shift assay
[4] = test system: SNU-423; assay: Antitumor activity against human SNU-423 cells assessed as cell growth inhibition treated for 10 to 15 days; assay type: functional; conditions: time 10-15 day
[5] = test system: SU-DHL-6; assay: Antitumor activity against human SU-DHL-6 cells assessed as cell growth inhibition treated for 10 to 15 days; assay type: functional; conditions: time 10-15 day
[6] = target: Angiopoietin-1 receptor (Homo sapiens) (UniProt Q02763); assay: Inhibition of N-terminal GST-tagged human TIE2 cytoplasmic domain (771 to 1124 residues) expressed in baculovirus-infected Sf21 cells using Blk/Lyntide as substrate at 1 uM in presence of ATP by Mobility shift assay
[7] = test system: G-401; assay: Antitumor activity against human G-401 cells assessed as cell growth inhibition treated for 10 to 15 days; assay type: functional; conditions: time 10-15 day
[8] = Antitumor activity against human NCI-H660 cells assessed as cell growth inhibition treated for 10 to 15 days; assay type: functional; conditions: time 10-15 day
[9] = test system: SNU-398; assay: Antitumor activity against human SNU-398 cells assessed as cell growth inhibition treated for 10 to 15 days; assay type: functional; conditions: time 10-15 day
[10] = target: Histone-lysine N-methyltransferase SETD7 (Homo sapiens, UniProt Q8WTS6); assay: Inhibition of human SET7/9 using Core Histone and [3H]SAM as substrate incubated for 30 mins to 1 hr by HotSpot kinase assay
[11] = Antitumor activity against human MINO cells assessed as cell growth inhibition treated for 10 to 15 days; assay type: functional; conditions: time 10-15 day
[12] = Antitumor activity against human OV7 cells assessed as cell growth inhibition treated for 10 to 15 days; assay type: functional; conditions: time 10-15 day
[13] = test system: OCI-Ly7; assay: Antitumor activity against human OCILY7 cells assessed as cell growth inhibition treated for 10 to 15 days; assay type: functional; conditions: time 10-15 day
[14] = Antitumor activity against human RDES cells assessed as cell growth inhibition treated for 10 to 15 days; assay type: functional; conditions: RD-ES, time 10-15 day
[15] = test system: OV-90; assay: Antitumor activity against human OV-90 cells assessed as cell growth inhibition treated for 10 to 15 days; assay type: functional; conditions: time 10-15 day
[16] = target: MAP kinase-activated protein kinase 3 (Homo sapiens) (UniProt Q16644); assay: Inhibition of N-terminal GST-fused full length human MAPKAPK3 (1 to 382 residues) expressed in baculovirus expression system using GS peptide as substrate at 1 uM in presence of ATP by Mobility shift assay
[17] = target: Histone-lysine N-methyltransferase NSD2 (Homo sapiens, UniProt O96028, T1150A); assay: Inhibition of human NSD2 T1150A mutant using Nucleosomes and [3H]SAM as substrate incubated for 30 mins to 1 hr by HotSpot kinase assay
[18] = Antitumor activity against human CMK-86 cells assessed as cell growth inhibition treated for 10 to 15 days; assay type: functional; conditions: time 10-15 day
[19] = test system: Toledo; assay: Antitumor activity against human Toledo cells assessed as cell growth inhibition treated for 10 to 15 days; assay type: functional; conditions: time 10-15 day
[20] = target: Histone-lysine N-methyltransferase NSD3 (Homo sapiens, UniProt Q9BZ95); assay: Inhibition of human NSD3 using Nucleosomes and [3H]SAM as substrate incubated for 30 mins to 1 hr by HotSpot kinase assay
[21] = test system: HCT-116; assay: Antitumor activity against human HCT-116 cells assessed as cell growth inhibition treated for 10 to 15 days; assay type: functional; conditions: time 10-15 day
[22] = Antitumor activity against human HuT 102 cells assessed as cell growth inhibition treated for 10 to 15 days; assay type: functional; conditions: time 10-15 day
[23] = target: Ribosomal protein S6 kinase alpha-6 (Homo sapiens) (UniProt Q9UK32); assay: Inhibition of N-terminal GST-fused human full length RSK4 (1 to 745 residues) expressed in baculovirus expression system using S6K peptide(N-FL) as substrate at 1 uM in presence of ATP by Mobility shift assay
[24] = target: Histone-lysine N-methyltransferase 2B (Homo sapiens, UniProt Q9UMN6); assay: Inhibition of human MLL4 using Core Histone and [3H]SAM as substrate incubated for 30 mins to 1 hr by HotSpot kinase assay
[25] = Antitumor activity against human OVMANA cells assessed as cell growth inhibition treated for 10 to 15 days; assay type: functional; conditions: time 10-15 day
[26] = test system: HCC38; assay: Antitumor activity against human HCC38 cells assessed as cell growth inhibition treated for 10 to 15 days; assay type: functional; conditions: time 10-15 day
[27] = test system: RMG-I; assay: Antitumor activity against human RMG-I cells assessed as cell growth inhibition treated for 10 to 15 days; assay type: functional; conditions: time 10-15 day
[28] = Toxicity in Crl:CD Sprague-Dawley rat assessed as total cholesterol level in blood at 100 mg/kg, po administered daily for 14 days (reference value: 63.5 +/-[…]); assay type: organism-based; conditions: in vivo, 336 h, time 14 day
[29] = Toxicity in Crl:CD Sprague-Dawley rat assessed as vacuolation of histiocytes in thymus cortex at 100 mg/kg, po administered daily for 14 days by hematoxylin and eosin staining based analysis; assay type: organism-based; conditions: in vivo, 336 h, time 14 day
[30] = Toxicity in Crl:CD Sprague-Dawley rat assessed as […] dehydrogenase level in blood at 100 mg/kg, po administered daily for 14 days (reference value: 103 +/-16.1 U/L); assay type: organism-based; conditions: in vivo, 336 h, time 14 day
[31] = Mean AUC (0-24 hrs) in Crl:CD Sprague-Dawley rat at 100 mg/kg, po by LC/MS/MS analysis; assay type: ADME, organism-based; conditions: in vivo
[32] = Mean AUC (0-24 hrs) in Crl:CD Sprague-Dawley rat at 100 mg/kg, po administered daily for 14 days by LC/MS/MS analysis; assay type: ADME, organism-based; conditions: in vivo, time 14 day
[33] = Toxicity in Crl:CD Sprague-Dawley rat assessed as decrease in body weight at 100 mg/kg, po administered daily for 14 days; assay type: organism-based; conditions: in vivo, 336 h, time 14 day
[34] = Toxicity in Crl:CD Sprague-Dawley rat assessed as eosinophil count in blood at 100 mg/kg, po administered daily for 14 days (reference value: 0.085+/-0.04 10^3/uL); assay type: organism-based; conditions: in vivo, 336 h, time 14 day
[35] = Toxicity in Crl:CD Sprague-Dawley rat assessed as atrophy of hepatocytes in liver at 100 mg/kg, po administered daily for 14 days by hematoxylin and eosin staining based analysis; assay type: organism-based; conditions: in vivo, 336 h, time 14 day
[36] = Toxicity in Crl:CD Sprague-Dawley rat assessed as inorganic phosphorus level in blood at 100 mg/kg, po administered daily for 14 days (reference value: 6.02+/-0.628 mg/dL); assay type: organism-based; conditions: in vivo, 336 h, time 14 day
[37] = Toxicity in Crl:CD Sprague-Dawley rat assessed as reticulocyte percentile in blood at 100 mg/kg, po administered daily for 14 days (reference value: 4.68+/-0.802%); assay type: organism-based; conditions: in vivo, 336 h, time 14 day
[38] = test system: KARPAS-422; assay: Antitumor activity against human KARPAS-422 cells xenografted in CB17/Icr-Prkdcscid/CrlCrlj mouse assessed as inhibition of tumor growth at 50 mg/kg, po BID for 14 days; assay type: functional, organism-based; conditions: time 14.0 day

Chain of Ribosomal protein S6 kinase alpha-6 (Homo sapiens) (Q9UK32 whole entry, the tested form may be a part): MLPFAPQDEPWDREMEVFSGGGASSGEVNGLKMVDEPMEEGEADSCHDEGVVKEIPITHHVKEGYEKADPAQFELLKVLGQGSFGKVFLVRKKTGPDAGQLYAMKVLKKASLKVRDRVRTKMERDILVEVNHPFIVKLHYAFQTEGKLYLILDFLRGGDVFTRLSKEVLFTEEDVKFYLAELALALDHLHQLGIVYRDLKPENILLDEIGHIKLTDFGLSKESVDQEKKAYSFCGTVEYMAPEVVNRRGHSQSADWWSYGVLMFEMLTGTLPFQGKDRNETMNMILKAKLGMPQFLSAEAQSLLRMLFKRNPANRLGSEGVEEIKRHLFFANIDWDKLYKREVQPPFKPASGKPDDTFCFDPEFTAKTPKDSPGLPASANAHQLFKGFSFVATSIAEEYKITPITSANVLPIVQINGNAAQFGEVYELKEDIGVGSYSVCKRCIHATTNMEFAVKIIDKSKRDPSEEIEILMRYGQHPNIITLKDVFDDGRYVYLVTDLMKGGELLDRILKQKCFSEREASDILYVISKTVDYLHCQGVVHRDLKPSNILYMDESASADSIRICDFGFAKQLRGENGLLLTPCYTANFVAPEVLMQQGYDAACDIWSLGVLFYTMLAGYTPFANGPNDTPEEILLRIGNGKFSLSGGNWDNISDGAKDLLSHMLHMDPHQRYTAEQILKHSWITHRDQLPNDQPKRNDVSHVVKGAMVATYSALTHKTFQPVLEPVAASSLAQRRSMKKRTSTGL
Chain of Histone-lysine N-methyltransferase 2B (Q9UMN6 whole entry): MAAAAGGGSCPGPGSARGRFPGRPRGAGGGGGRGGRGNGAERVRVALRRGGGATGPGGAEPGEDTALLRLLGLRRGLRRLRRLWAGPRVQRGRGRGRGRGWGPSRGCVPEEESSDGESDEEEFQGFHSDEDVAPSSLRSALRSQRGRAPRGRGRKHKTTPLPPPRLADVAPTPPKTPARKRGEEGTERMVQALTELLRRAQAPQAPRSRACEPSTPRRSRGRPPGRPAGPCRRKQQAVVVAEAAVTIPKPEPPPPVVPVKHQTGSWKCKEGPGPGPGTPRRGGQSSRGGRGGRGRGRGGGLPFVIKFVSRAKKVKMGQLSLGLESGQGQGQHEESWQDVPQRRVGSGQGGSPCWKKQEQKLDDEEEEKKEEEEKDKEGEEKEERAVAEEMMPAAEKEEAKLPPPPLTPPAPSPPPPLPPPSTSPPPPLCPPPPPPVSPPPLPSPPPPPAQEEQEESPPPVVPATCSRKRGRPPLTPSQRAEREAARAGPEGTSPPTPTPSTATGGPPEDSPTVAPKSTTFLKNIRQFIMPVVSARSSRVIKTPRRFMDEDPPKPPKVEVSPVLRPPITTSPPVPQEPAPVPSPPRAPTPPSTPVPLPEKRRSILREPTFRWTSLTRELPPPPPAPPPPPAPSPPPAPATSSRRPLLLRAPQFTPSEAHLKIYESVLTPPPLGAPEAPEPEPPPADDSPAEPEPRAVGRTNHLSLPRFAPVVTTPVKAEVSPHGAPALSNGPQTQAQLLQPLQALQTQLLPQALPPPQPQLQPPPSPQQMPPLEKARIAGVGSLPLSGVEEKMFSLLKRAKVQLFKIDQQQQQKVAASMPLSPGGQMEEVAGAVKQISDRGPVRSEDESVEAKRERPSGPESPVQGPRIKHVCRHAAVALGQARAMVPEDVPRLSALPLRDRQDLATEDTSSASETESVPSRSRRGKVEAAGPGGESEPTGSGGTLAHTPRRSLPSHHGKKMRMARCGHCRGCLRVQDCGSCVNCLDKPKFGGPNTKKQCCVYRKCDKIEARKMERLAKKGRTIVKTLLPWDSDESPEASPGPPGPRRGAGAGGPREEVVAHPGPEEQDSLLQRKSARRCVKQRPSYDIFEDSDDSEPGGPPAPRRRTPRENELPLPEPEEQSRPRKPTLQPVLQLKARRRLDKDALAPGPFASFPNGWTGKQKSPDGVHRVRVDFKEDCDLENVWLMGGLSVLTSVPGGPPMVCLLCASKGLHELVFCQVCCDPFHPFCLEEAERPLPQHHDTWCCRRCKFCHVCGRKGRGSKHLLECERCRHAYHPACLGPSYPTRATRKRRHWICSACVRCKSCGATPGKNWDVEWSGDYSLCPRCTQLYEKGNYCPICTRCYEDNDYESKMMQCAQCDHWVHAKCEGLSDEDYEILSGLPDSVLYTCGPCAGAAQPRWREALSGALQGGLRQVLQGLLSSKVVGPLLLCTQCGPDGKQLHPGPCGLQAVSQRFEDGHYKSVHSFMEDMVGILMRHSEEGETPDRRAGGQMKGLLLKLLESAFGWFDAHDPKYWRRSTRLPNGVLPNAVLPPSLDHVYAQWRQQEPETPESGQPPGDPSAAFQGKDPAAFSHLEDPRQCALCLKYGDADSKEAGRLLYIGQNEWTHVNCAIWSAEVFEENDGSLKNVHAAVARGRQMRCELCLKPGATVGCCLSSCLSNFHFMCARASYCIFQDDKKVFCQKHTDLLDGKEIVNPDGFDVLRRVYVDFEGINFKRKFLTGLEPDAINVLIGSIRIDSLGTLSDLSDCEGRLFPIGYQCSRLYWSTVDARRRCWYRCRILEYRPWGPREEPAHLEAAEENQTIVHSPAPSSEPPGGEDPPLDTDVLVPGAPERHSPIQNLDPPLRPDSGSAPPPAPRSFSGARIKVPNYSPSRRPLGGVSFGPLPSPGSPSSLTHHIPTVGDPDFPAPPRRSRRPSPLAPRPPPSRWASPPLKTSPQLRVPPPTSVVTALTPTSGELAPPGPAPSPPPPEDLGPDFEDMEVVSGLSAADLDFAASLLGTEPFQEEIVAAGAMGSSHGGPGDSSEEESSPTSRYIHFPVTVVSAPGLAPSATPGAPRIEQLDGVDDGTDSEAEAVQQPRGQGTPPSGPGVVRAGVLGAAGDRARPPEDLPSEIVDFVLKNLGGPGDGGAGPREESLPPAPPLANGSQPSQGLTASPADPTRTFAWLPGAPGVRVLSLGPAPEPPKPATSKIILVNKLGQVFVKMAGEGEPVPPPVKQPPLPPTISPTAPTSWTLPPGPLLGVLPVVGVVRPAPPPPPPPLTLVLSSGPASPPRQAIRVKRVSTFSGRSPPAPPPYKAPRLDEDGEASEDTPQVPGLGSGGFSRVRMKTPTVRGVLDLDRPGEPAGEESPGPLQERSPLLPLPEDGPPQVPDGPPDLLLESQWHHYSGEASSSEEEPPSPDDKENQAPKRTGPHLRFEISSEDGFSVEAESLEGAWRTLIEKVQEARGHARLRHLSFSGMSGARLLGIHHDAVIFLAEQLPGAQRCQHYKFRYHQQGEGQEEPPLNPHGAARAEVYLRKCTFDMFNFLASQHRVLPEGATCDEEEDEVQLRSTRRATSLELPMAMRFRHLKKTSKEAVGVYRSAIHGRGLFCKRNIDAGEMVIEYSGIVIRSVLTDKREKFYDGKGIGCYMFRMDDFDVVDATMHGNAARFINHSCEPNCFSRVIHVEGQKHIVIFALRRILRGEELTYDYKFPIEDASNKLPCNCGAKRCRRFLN
Chain of MAP kinase-activated protein kinase 3 (Homo sapiens) (Q16644 whole entry, looked up, the tested form may be a part): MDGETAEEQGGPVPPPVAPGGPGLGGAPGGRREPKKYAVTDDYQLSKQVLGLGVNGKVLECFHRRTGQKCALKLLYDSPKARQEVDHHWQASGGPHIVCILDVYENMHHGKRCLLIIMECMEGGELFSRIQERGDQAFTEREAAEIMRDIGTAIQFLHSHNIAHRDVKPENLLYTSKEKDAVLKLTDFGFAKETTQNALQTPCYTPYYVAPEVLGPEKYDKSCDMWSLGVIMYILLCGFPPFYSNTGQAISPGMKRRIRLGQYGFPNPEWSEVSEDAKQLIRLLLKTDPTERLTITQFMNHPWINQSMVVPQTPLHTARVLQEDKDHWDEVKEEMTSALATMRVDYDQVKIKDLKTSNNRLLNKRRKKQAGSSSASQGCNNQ
Chain of Ribosomal protein S6 kinase alpha-2 (Homo sapiens) (Q15349 whole entry, the tested form may be a part): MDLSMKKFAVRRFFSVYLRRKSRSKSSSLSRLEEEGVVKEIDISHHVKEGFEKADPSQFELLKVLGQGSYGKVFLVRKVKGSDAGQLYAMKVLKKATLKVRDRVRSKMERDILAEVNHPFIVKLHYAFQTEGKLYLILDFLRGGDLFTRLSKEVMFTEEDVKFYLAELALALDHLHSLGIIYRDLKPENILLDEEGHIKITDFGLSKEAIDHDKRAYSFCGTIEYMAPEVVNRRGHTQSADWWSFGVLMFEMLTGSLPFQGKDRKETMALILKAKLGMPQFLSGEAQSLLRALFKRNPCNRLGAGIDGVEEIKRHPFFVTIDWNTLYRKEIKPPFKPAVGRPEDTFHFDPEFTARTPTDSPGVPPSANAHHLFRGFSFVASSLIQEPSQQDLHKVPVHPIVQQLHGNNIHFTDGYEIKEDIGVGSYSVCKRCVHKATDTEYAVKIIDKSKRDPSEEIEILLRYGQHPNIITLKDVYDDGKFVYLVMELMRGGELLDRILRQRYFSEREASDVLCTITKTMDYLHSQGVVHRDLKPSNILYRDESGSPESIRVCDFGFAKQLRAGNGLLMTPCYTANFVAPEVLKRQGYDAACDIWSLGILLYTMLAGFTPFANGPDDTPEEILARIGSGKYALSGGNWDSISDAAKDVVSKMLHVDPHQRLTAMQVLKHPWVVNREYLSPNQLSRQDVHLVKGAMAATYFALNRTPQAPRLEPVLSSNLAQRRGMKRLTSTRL
Chain of Histone-lysine N-methyltransferase SETD7 (Q8WTS6 whole entry): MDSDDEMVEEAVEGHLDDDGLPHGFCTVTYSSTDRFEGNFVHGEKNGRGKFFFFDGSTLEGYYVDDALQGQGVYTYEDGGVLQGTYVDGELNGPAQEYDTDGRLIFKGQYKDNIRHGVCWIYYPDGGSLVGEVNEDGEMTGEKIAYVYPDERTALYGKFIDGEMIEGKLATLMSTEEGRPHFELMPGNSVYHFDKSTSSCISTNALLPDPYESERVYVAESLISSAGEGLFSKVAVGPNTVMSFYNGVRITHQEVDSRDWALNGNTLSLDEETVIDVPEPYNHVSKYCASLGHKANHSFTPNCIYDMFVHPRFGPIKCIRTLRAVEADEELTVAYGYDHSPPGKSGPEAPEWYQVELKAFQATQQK

Q: Which GI50 [1] does the source give for Cc1cc(C)c(CNC(=O)c2cc(Cl)c3c(c2C)O[C@@](C)([C@H]2CC[C@H](N(C)C)CC2)O3)c(=O)[nH]1 [VALEMETOSTAT] here?
A: Its GI50 is greater than 1000 nM.

Q: And the GI50 [2]?
A: The GI50 was greater than 1000 nM.

Q: What about the inhibition [3] of the same molecule?
A: Its inhibition is -3.9%.

Q: What about the GI50 [4] of the same molecule?
A: Its GI50 is greater than 1000 nM.

Q: What about the GI50 [5] of the same molecule?
A: Its GI50 is 0.68 nM.

Q: What about the inhibition [6] of the same molecule?
A: Its inhibition is -7.6%.

Q: What about the GI50 [7] of the same molecule?
A: Its GI50 is 17.7 nM.

Q: And the GI50 [8]?
A: Its GI50 is greater than 1000 nM.

Q: And the GI50 [9]?
A: The GI50 was 2.07 nM.

Q: What about the IC50 [10] of the same molecule?
A: Its IC50 is 100000 nM.

Q: And the GI50 [11]?
A: Its GI50 is 20.7 nM.

Q: What about the GI50 [12] of the same molecule?
A: The GI50 was greater than 1000 nM.

Q: And the GI50 [13]?
A: Its GI50 is 59.2 nM.

Q: And the GI50 [14]?
A: Its GI50 is greater than 1000 nM.

Q: And the GI50 [15]?
A: Its GI50 is greater than 1000 nM.

Q: And the inhibition [16]?
A: Its inhibition is -9.3%.

Q: And the IC50 [17]?
A: Its IC50 is 100000 nM.

Q: And the GI50 [18]?
A: The GI50 was 444 nM.

Q: What about the GI50 [19] of the same molecule?
A: The GI50 was greater than 1000 nM.

Q: What about the IC50 [20] of the same molecule?
A: The IC50 was 100000 nM.

Q: What about the GI50 [21] of the same molecule?
A: The GI50 was greater than 1000 nM.

Q: And the GI50 [22]?
A: The GI50 was 0.987 nM.

Q: And the inhibition [23]?
A: The inhibition was -0.5%.

Q: What about the IC50 [24] of the same molecule?
A: Its IC50 is 100000 nM.

Q: What about the GI50 [25] of the same molecule?
A: The GI50 was greater than 1000 nM.

Q: What about the GI50 [26] of the same molecule?
A: The GI50 was greater than 1000 nM.

Q: What about the GI50 [27] of the same molecule?
A: The GI50 was greater than 1000 nM.

Q: With Cc1cc(C)c(CNC(=O)c2cc(Br)c3c(c2C)O[C@@](C)([C@H]2CC[C@H](N(C)C)CC2)O3)c(=O)[nH]1 as the molecule, how does the Activity [28] read?
A: The Activity was 64 mg/dL.

Q: What about the Activity [29] of the same molecule?
A: Its Activity is “Toxic”.

Q: And the Activity [30]?
A: The Activity was 137 U/L.

Q: And the AUC [31]?
A: Its AUC is 25.2 µM·h.

Q: And the AUC at 336 h [32]?
A: Its AUC at 336 h is 27.9 µM·h.

Q: What about the Activity [33] of the same molecule?
A: The Activity was “Toxic”.

Q: What about the Activity [34] of the same molecule?
A: The Activity was 0.168 10^3 /uL.

Q: What about the Activity [35] of the same molecule?
A: Its Activity is “Toxic”.

Q: What about the Activity [36] of the same molecule?
A: The Activity was 5.97 mg/dL.

Q: And the inhibition [23]?
A: Its inhibition is -2.5%.

Q: And the Activity [37]?
A: Its Activity is 4.48%.

Q: And the Activity [38]?
A: Its Activity is “Active”.
